Where two headings read alike, the source gives them in different places.
Experiments:
[1] = biological target: T1, Hsp90 (Saccharomyces cerevisiae, UniProt P02829); assay: ITC, co-chaperone binding to Hsp90; parameters: species or system yeast
T1 construct: made in house
Experimental: (§1) The heat of interaction was measured on an ITC200 microcalorimeter (Microcal) under the same buffer conditions (20 mM Tris, pH 7.5, containing 5 mM NaCl), except for experiments using PP5, where we omitted EDTA and used 1 μM MnCl2. In experiments using nucleotide, we used 5 mM AMPPNP and 6 mM MgCl2. For experiments using Aha1 with AMPPNP the buffer contained 100 mM NaCl. Similarly, Sgt1 experiments also included 100 mM NaCl in the buffer. […] To assess co-chaperone binding to Hsp90 and Hsp90-LA1011 complex, we generally injected aliquots of co-chaperone at concentrations ranging from 200 to 400 μM into the microcell containing the Hsp90 or Hsp90-LA1011 complex at concentrations ranging from 20 to 30 μM of Hsp90 or Hsp90 in complex with 2 mM LA1011 at 30 °C. Heats of dilution were determined by diluting the injectant into the buffer. Data were fitted using a curve-fitting algorithm (Microcal Origin) either as a one-site binding event or as two independent binding sites as required.

[2] = biological target: T2, Hsp90-LA1011 (Saccharomyces cerevisiae, UniProt P02829); assay: ITC, co-chaperone binding to Hsp90-LA1011 complex; parameters: species or system yeast
T2 construct: made in house
Experimental: as §1

[3] = biological target: T1, Hsp90; assay: ITC, LA1011 binding to nucleotide-free Hsp90; parameters: species or system yeast; settings: ITC 30 °C, 2 mM LA1011 injected into 30 μM Hsp90
Experimental: (§2) The heat of interaction was measured on an ITC200 microcalorimeter (Microcal) under the same buffer conditions (20 mM Tris, pH 7.5, containing 5 mM NaCl), except for experiments using PP5, where we omitted EDTA and used 1 μM MnCl2. In experiments using nucleotide, we used 5 mM AMPPNP and 6 mM MgCl2. For experiments using Aha1 with AMPPNP the buffer contained 100 mM NaCl. Similarly, Sgt1 experiments also included 100 mM NaCl in the buffer. […] Heats of dilution were determined by diluting the injectant into the buffer. Data were fitted using a curve-fitting algorithm (Microcal Origin) either as a one-site binding event or as two independent binding sites as required.
(§3) To circumvent this limitation, we can alternatively fit the two sites as equal thermodynamic events, and the Kd value or values(s) returned then act as an indicator for changes in the overall affinity for LA1011 binding. […] Thus, our overall approach is to use a stoichiometry of 1:1 that represents the binding of two LA1011 molecules (because there are two binding sites) per Hsp90 dimer, except where we are confident that the stoichiometry is 2:1 (Hsp90 dimer and one LA1011 molecule). […] Thus, prior to choosing the ITC fitting parameters, we first consider the availability of both LA1011 binding sites for complexes of Hsp90 with its co-chaperone partner. […]

[4] = biological target: T3, Hsp90-AMPPNP (Saccharomyces cerevisiae, UniProt P02829); assay: ITC, LA1011 binding to Hsp90-AMPPNP; parameters: species or system yeast; settings: 30 μM Hsp90, 5 mM AMPPNP
T3 construct: made in house
Experimental: as §2, §3

[5] = biological target: T4, Hsp90-FKBP51 (Saccharomyces cerevisiae, UniProt P02829); assay: ITC, LA1011 binding to Hsp90-FKBP51 complex; parameters: species or system yeast; settings: 30 μM Hsp90, 60 μM FKBP51, 2:1 fit
T4 construct: made in house
Experimental: as §2
(§4) Thus, our overall approach is to use a stoichiometry of 1:1 that represents the binding of two LA1011 molecules (because there are two binding sites) per Hsp90 dimer, except where we are confident that the stoichiometry is 2:1 (Hsp90 dimer and one LA1011 molecule).

[6] = biological target: T5, Hsp90-FKBP52 (Saccharomyces cerevisiae, UniProt P02829); assay: ITC, LA1011 binding to Hsp90-FKBP52 complex; parameters: species or system yeast; settings: 30 μM Hsp90, 60 μM FKBP52, 2:1 fit
T5 construct: made in house
Experimental: as §2, §4

[7] = biological target: T6, Hsp90-CHIP (Saccharomyces cerevisiae, UniProt P02829); assay: ITC, LA1011 binding to Hsp90-mouse CHIP complex; parameters: species or system yeast; settings: 20 μM Hsp90, 60 μM CHIP
T6 construct: made in house
Experimental: as §2, §3

[8] = biological target: T7, Hsp90-p23-PNP (Saccharomyces cerevisiae, UniProt P02829); assay: ITC, LA1011 binding to AMPPNP-Hsp90-p23 complex; parameters: species or system yeast; settings: 30 μM Hsp90, 200 μM p23, 5 mM Mg-PNP
T7 construct: made in house
Experimental: as §2, §3

[9] = biological target: T8, Hsp90-Aha1 (Saccharomyces cerevisiae, UniProt P02829); assay: ITC, LA1011 binding to nucleotide-free Hsp90-yeast Aha1 complex; settings: 20 μM Hsp90, 40 μM yAha1, nucleotide-free
T8 construct: made in house
T8 sequence (P02829 whole entry): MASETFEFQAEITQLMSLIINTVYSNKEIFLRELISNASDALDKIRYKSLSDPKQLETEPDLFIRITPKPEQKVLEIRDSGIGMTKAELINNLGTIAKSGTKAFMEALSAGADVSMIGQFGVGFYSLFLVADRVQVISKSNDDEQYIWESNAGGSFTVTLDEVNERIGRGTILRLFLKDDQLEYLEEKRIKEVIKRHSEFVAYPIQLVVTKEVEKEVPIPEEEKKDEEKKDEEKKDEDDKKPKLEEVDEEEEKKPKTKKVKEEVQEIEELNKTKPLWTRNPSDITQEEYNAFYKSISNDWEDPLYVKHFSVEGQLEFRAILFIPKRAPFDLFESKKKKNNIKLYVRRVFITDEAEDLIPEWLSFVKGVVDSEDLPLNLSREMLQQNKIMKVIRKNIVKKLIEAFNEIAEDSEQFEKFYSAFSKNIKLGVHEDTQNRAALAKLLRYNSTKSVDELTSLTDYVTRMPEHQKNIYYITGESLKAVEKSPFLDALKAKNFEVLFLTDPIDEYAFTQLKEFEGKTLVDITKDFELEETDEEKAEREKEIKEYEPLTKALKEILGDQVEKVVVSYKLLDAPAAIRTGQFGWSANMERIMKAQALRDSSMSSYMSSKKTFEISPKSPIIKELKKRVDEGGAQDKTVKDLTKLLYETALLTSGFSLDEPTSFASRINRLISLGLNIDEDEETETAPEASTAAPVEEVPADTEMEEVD
T8 sequence (Q12449 whole entry partner): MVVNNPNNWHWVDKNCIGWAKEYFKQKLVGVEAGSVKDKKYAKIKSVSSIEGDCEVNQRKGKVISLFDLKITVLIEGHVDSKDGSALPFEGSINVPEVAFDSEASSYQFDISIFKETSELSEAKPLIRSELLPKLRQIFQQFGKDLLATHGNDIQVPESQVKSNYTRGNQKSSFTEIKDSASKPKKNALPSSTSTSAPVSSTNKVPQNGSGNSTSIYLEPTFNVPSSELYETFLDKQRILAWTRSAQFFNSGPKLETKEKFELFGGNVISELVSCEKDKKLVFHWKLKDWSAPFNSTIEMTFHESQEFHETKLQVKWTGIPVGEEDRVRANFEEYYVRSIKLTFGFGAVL
Experimental: as §2, §3

[10] = biological target: T9, Hsp90-CDC37 (Saccharomyces cerevisiae, UniProt P02829); assay: ITC, LA1011 binding to Hsp90-CDC37 complex; parameters: species or system yeast
T9 construct: made in house
T9 sequence (P02829 whole entry): as the sequence (P02829 whole entry) above
T9 sequence (Q16543 whole entry partner): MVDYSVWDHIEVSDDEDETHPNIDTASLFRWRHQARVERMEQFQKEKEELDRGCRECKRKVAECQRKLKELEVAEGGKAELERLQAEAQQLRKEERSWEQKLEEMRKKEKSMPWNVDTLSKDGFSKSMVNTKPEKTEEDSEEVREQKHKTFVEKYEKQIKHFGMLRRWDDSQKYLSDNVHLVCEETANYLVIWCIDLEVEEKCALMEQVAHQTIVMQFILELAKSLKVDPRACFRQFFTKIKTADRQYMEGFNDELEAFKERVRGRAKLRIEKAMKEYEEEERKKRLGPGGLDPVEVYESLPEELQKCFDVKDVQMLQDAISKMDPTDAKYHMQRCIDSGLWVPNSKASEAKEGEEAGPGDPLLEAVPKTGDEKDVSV
Experimental: as §2, §4

[11] = biological target: T10, Hsp90-Sgt1 (Saccharomyces cerevisiae, UniProt P02829); assay: ITC, LA1011 binding to Hsp90-Sgt1 complex; parameters: species or system yeast; settings: 30 μM Hsp90, 60 μM Sgt1, 100 mM NaCl, 2:1 fit
T10 construct: made in house
Experimental: as §2, §4

[12] = biological target: T1, Hsp90; assay: Lactate-dehydrogenase and pyruvate-kinase-linked Hsp90 ATPase assay; format: biochemical, yeast; settings: for effect on Hsp90 ATPase activity: 2 μM Hsp90; for effect of LA1011 on the co-chaperone directed regulation of Hsp90 ATPase activity: 2 μM Hsp90, 240 μM LA1011, co-chaperone 0.25 to 30 μM, normalized data compared with control lacking LA1011
Experimental: ATPase assays using 2 μM Hsp90 were conducted as previously described using the lactate-dehydrogenase and pyruvate-kinase-linked assay.[12] Briefly, 240 μM of LA1011 was used in assays as required. Co-chaperones were added to Hsp90 and Hsp90-LA1011 complex at a variety of concentrations ranging from 0.25 to 30 μM. Assays utilizing LA1011 were normalized by recalculating the activity for all data points so that the data points were converted to a percentage of the activity relative to the first data point, which lacked any addition of co-chaperone. The first data point was therefore 100% max Hsp90 activity. All assays were conducted at least in triplicate.
To assess the effect of LA1011 on the mechanistic action of co-chaperones, we used the lactate-dehydrogenase and pyruvate-kinase-linked Hsp90 ATPase assay. We first assessed the effect of each co-chaperone on Hsp90 ATPase activity and then compared its effect on a Hsp90-LA1011 complex.

[13] = biological target: Hsp90-HOP (Saccharomyces cerevisiae, UniProt P02829); settings: ITC, 20 μM Hsp90, 40 μM HOP
Experimental: as §2, §4

[14] = system: APPxPS1 AD mouse model; parameters: method as in PMID 27163800; settings: APPxPS1 mice, versus untreated mice; cited from earlier work
[15] = biological target: Hsp90; parameters: method as in PMID 29930942; settings: previously measured; cited from earlier work
[16] = biological target: T11, Hsp90-PNP (Saccharomyces cerevisiae, UniProt P02829); assay: ITC, co-chaperone binding to Hsp90-AMPPNP; parameters: species or system yeast; settings: 5 mM AMPPNP, no LA1011, for Aha1 the Hsp90-PNP was the injectant
T11 construct: made in house
T11 sequence (P02829 whole entry): as the sequence (P02829 whole entry) above
Experimental: as §1

[17] = biological target: T12, Hsp90-LA1011-PNP (Saccharomyces cerevisiae, UniProt P02829); assay: ITC, co-chaperone binding to Hsp90-AMPPNP-LA1011 complex; parameters: species or system yeast; settings: 5 mM AMPPNP, 2 mM LA1011, for Aha1 the Hsp90-LA1011-PNP was the injectant
T12 construct: made in house
T12 sequence (P02829 whole entry): as above
Experimental: as §1

[18] = ITC 30 °C, co-chaperone and Hsp90 without LA1011, one-site fit, read-out: Kd
[19] = ITC 30 °C, Hsp90 in complex with 2 mM LA1011, one-site fit, read-out: Kd

T2 sequence (P02829 whole entry): as above
T1 sequence (P02829 whole entry): as above

Q: Which results are given for “HOP: Hsp90 co-chaperone found in early complexes of the chaperone cycle”?
A: Kd [1, 18]: 0.43 µM; Kd [2, 19]: 0.3 µM

Q: With `COC(=O)C1=C(CCN(C)C)N(C)C(CCN(C)C)=C(C(=O)OC)C1c1ccc(C(F)(F)F)cc1.Cl.Cl` [LA1011, dimethyl 4-(4-Trifluoro-methyl-phenyl)-2,6-bis(2-dimethylamino-ethyl)-1-methyl-1-4 dihydropyridine-3-5-dicarboxylate dihydrochloride] as the compound, how does the Kd ([3]; 1:1 stoichiometric fit, read-out: Kd (1:1)) read?
A: 19.8 ± 2.2 µM

Q: And the Kd ([3]; 2:1 (Hsp90:LA1011) stoichiometric fit, read-out: Kd (2:1))?
A: 28.9 ± 1.7 µM

Q: What about the Kd ([4]; 1:1 fit, read-out: Kd (1:1)) of the same compound?
A: 58.8 ± 24.2 µM

Q: And the Kd ([4]; 2:1 fit, read-out: Kd (2:1))?
A: 73 ± 3.1 µM

Q: What about the Kd [5] of the same compound?
A: 79.4 ± 33.5 µM

Q: What about the Kd [6] of the same compound?
A: 56.2 ± 5.8 µM

Q: And the Kd ([7]; 1:1 fit, read-out: Kd (1:1))?
A: 56.2 ± 26.2 µM

Q: And the Kd ([7]; 2:1 fit, read-out: Kd (2:1))?
A: 69 ± 2 µM

Q: What about the Kd ([8]; 1:1 fit, read-out: Kd (1:1)) of the same compound?
A: 58.8 ± 3.5 µM

Q: And the Kd ([8]; 2:1 fit, read-out: Kd (2:1))?
A: 73 ± 4.5 µM

Q: What about the Kd ([9]; 1:1 fit, read-out: Kd (1:1)) of the same compound?
A: 118 ± 8 µM

Q: And the Kd ([9]; 2:1 fit, read-out: Kd (2:1))?
A: 53.2 ± 5.5 µM

Q: What about the Kd ([10]; 20 μM Hsp90, 40 μM CDC37, 1:1 fit, read-out: Kd (1:1)) of the same compound?
A: 4.2 ± 0.8 µM

Q: What about the Kd ([10]; 20 μM Hsp90, 40 μM CDC37, 2:1 fit, read-out: Kd (2:1)) of the same compound?
A: 9.5 ± 2.5 µM

Q: And the Kd [11]?
A: 8.2 ± 1 µM

Q: And the “effect on Hsp90 ATPase activity” value [12]?
A: activators of Hsp90 ATPase activity

Q: What about the Kd ([13]; read-out: Kd (1:1), 1:1 fit) of the same compound?
A: 8.8 ± 1.3 µM

Q: And the Kd ([13]; read-out: Kd (2:1), 2:1 fit)?
A: 8.8 ± 1.3 µM

Q: And the “amyloid-beta (Aβ) plaques” value [14]?
A: decreases

Q: What about the dendritic spine density [14] of the same compound?
A: increase in the dendritic spine density

Q: And the heat-shock-response [14]?
A: co-induction of the heat-shock-response

Q: What about the neurofibrillary tangles [14] of the same compound?
A: decreases in neurofibrillary tangles

Q: And the neuron number [14]?
A: increase in neuron number

Q: And the Kd [15]?
A: 13.5 µM

Q: Which Kd ([1]; ITC, Hsp90 without LA1011, two-site fit, value listed first in Table 2 and figures, read-out: Kd (two-site fit, first value listed)) does the source give for “PP5: full-length PP5, phosphatase co-chaperone of Hsp90” here?
A: 0.64 µM

Q: And the Kd ([1]; ITC, Hsp90 without LA1011, two-site fit, value listed second in Table 2 and figures, read-out: Kd (two-site fit, second value listed))?
A: 0.16 µM

Q: And the Kd ([2]; ITC, Hsp90 with 2 mM LA1011, two-site fit, value listed first in Table 2 and figures, read-out: Kd (two-site fit, first value listed))?
A: 9.6 µM

Q: And the Kd ([2]; ITC, Hsp90 with 2 mM LA1011, two-site fit, value listed second in Table 2 and figures, read-out: Kd (two-site fit, second value listed))?
A: 9.2 µM

Q: What does the source list for “Aha1: yeast Aha1, late-cycle Hsp90 co-chaperone and activator of Hsp90 ATPase activity”?
A: Kd [1, 18]: 2.4 ± 0.2 µM; Kd [2, 19]: 3.3 ± 0.4 µM; Kd [16]: 1.2 µM; Kd [17]: 1.8 µM; effect on Hsp90 ATPase activity [12]: activators of Hsp90 ATPase activity; effect of LA1011 on the co-chaperone directed regulation of Hsp90 ATPase activity [12]: significantly less Aha1 is required to fully activate Hsp90

Q: With “Hch1: Hsp90 co-chaperone homologous to the N-terminal domain of Aha1” as the compound, how does the Kd [1, 18] read?
A: 6.9 µM

Q: And the Kd [2, 19]?
A: 11.6 µM

Q: What does the source list for “CDC37: Hsp90 co-chaperone of early complex assembly”?
A: Kd [1, 18]: 1.59 µM; Kd [2, 19]: 1.3 µM; effect of LA1011 on the co-chaperone directed regulation of Hsp90 ATPase activity [12]: unaffected by the presence of LA1011

Q: With “p23: Hsp90 co-chaperone that promotes the closed conformation of Hsp90” as the compound, how does the Kd [16] read?
A: 4.2 µM

Q: What about the Kd [17] of the same compound?
A: 8.9 µM

Q: What about the “effect of LA1011 on the co-chaperone directed regulation of Hsp90 ATPase activity” value [12] of the same compound?
A: unaffected by the presence of LA1011

Q: Which “effect of LA1011 on the co-chaperone directed regulation of Hsp90 ATPase activity” value [12] does the source give for Sti1: the yeast homolog of human HOP here?
A: unaffected by the presence of LA1011

— publication PMC12757481, “The dihydropyridine LA1011 modulates multiple Hsp90—co-chaperone interactions relevant to Alzheimer’s disease” (Cell Stress & Chaperones, 2025)
